Experimental data published in patent US10758541B2, “Formulations of milciclib and therapeutic combinations of the same for use in the treatment of cancer” (Tiziana Life Sciences PLC, priority 2017, dated 2020).

Tested on: miR-221 and miR-222
Test: miRNA isolation and expression analysis of tumor tissues
Assay type: in vivo
Conditions: tumor tissues from orally treated mice, vs vehicle
Description: miRNA from athymic nude mice following treatment with vehicle, milciclib, sorafenib, or milciclib+sorafenib was isolated from Total RNA using the TaqMan Advanced miRNA cDNA Synthesis Kit (Thermo Fisher Scientific, Rockford, Ill.) according to the manufacturer's instructions. miRNA-221 and miR-222 quantifications were performed in duplicates using TaqMan Advanced miRNA Assay (Thermo Fisher Scientific, Rockford, Ill.) with a sample dilution of 1:10. The PCR mixture was incubated at 95° C. for 20 seconds, followed by 40 cycles of 95° C. for 3 seconds and 60° C. for 30 seconds. Results were normalized to hsa-miR-192-5p as reference miRNA and the relative gene expression calculated as 2−ΔCT was expressed as fold increase over control samples.
Tumor tissues from mice treated with vehicle, sorafenib, milciclib, milciclib+sorafenib and normal liver tissues from naïve untreated mice were collected and levels of miR-221 and miR-222 were determined. The levels of both of miR-221 and miR-222 were elevated in tumors from vehicle treated mice.

CNC(=O)c1nn(C)c2c1C(C)(C)Cc1cnc(Nc3ccc(N4CCN(C)CC4)cc3)nc1-2 [MILCICLIB, N,1,4,4-tetramethyl-8-((4-(4-methylpiperazin-1-yl)phenyl)amino)-4,5-dihydro-1H-pyrazolo[4,3-h]quinazoline-3-carboxamide]
expression of miR-221 and miR-222: significantly reduced
